Results taken from paper PMC5431684, “Zwitterionic near infrared fluorescent agents for noninvasive real-time transcutaneous assessment of kidney function” (Chemical Science, 2017).
Values joined by “and” are separate entries in the source; they are usually repeats but may differ in a detail not shown here. Equal entries are not always repeated. Where two headings read alike, the source gives them in different places. Values belong to the compound of their own block, whether it stands above or below them.

Assays:
plasma protein = conditions: cited from earlier work
[1] = Urinary recovery of injected dose (metabolic cages); format: in vivo, Sprague Dawley rats
Method: With this in mind, we investigated the recoveries of injected doses using in vivo experiments with metabolic cages. High urinary recoveries were determined for the free dye ABZWCY and its mixture with HPβCD (99.4 ± 4.8% and 96.5 ± 5.8%, respectively, Fig. 4 and Tables 2 and S6 ^†). Similar tendencies of urinary recoveries of ABZWCY-HPβCD and AAZWCY-HPβCD with values of 97 ± 3.9% and 103.3 ± 4.2%, respectively, were also observed (Fig. 4, and Tables 2 and S7 ^†). Indeed, urinary recoveries of the given dose were almost completed at 9 h post-injection for ABZWCY-HPβCD and AAZWCY-HPβCD, which is faster than the free dye ABZWCY and in agreement with their shorter clearance half-life.
All experiments were conducted in accordance with the German Animal Protection Law and approved by the local authority (Regierungspräsidium Nordbaden, Karlsruhe Germany in agreement with EU guideline 2010/63/EU). […]
10. Urinary recovery of injected dose in urine studies
Recovery of the injected dose in urine studies were conducted in conscious, healthy Sprague Dawley rats (Body weight: 250-300 g). The corresponding test agents with corresponding dosage (ABZWCY: 2.5 mg/kg, ABZWCY mixed with HPβCD: 2.5 mg/kg mixed with 22.5 mg/kg (HPβCD), ABZWCY-HPβCD and AAZWCY-HPβCD: 50 mg/kg) were administered by tail vein injection. Urine was collected using metabolic cages in intervals of 1, 2, 3, 6, 9, 24 h after intravenous injection of agents into rats. The samples were stored at -20°C until they were analyzed. The urine samples were centrifuged for 8 min at 13000 ×g and then filtered by 0.22 μm syringe filter. A series of working solution of each agent with concentrations between 0.02 mg/mL and 2 mg/mL were prepared. Appropriate volumes of the working solutions were added to blank urine and fluorescent intensity of those mixtures were measured in order to obtain an external calibration curve. Quantification of each of the agents in urine at each time point was performed via HPLC analysis and fluorescence intensity detection. The concentration in urine at each time point was calculated based on the external calibration standards curve between fluorescence intensity and the concentration of each of the agents.
Considering biological components within urine may interfere with the fluorescent intensity of agents, the fluorescent intensity of agent were tested to study whether there is difference in urine and PBS, the emission intensity and calibration curve are compared (Figure S11). The results […]
This slightly difference can explained the urinary recoveries have some trial a little over 100% (Table S6 and S7), which can be found in other literatures studies. […]

[2] = tested on: organic anion transporter (OAT) proteins; experiment: Transcutaneous measurement of elimination kinetics in healthy rats; format: in vivo, Sprague Dawley rats; conditions: Sprague Dawley, rat, skin (transcutaneous fluorescence signal), ip; healthy rats, 50 mg/kg probenecid i.p. 30 min prior to injection, transcutaneous; read-out: T 1/2 with probenecid (clearance half-life)
Method: (§1) The principles and methods of the transcutaneous technique are described in Fig. S10. ^† Firstly, as a control, IRDye800CW was chosen to be injected intravenously into rats and its elimination curves were measured transcutaneously. […] A long retention time of IRDye800CW in vivo was attributed to its higher PPB (41%) and negative charge feature, leading to skin accumulation and slow renal excretion. […] To assess whether the anionic agent ABANCY-HPβCD is reabsorbed or secreted by organic anion transporter (OAT) proteins in the kidney tubules, probenecid, an inhibitor of OAT proteins,[18] was administered (30 min prior to injection of ABANCY-HPβCD) to block tubular reabsorption and the secretion pathway, then, elimination curves were measured for the same rats. […] We also measured the cationic HPβCD based agent in the same manner and the results are similar to those of anionic HPβCD based agents. Next, the free dye ABZWCY was injected intravenously and its elimination curves were also recorded transcutaneously. […] This is in agreement with their similar PPB values (∼20%). To determine whether ABZWCY has tubular reabsorption or secretion in addition to filtration, probenecid was administered to block tubular reabsorption and the secretion pathway. […]
(§2) 8. Principle and methods for transcutaneous measurements of kidney function The transcutaneous assessment of renal function is based on the measurement of the fluorescence signal of a marker through the skin. A miniaturized transcutaneous device is comprised of two light emitting diodes (LEDs) and one photodiode (Figure S10a and 10b). The LEDs can blink every few seconds to excite a fluorescent marker using excitation wavelength of 700 nm. The fluorescent signal will be recorded by detecting the emission intensity of a fluorescent marker at 790 nm. Data are stored in the device and can be read out after measurement.[6] The clearance half-life of fluorescent agents was calculated by software, which was developed by the Institute of Medical Technology of the University of Heidelberg.[7] For this a 3-exponential function was fitted to the measured elimination curve, the peak of the curve was supposed to be 100%. Also a 1-exponential function was applied from 50% to 15% of the peak […]
(§3) Figure. S10. (a) Transcutaneous device and battery used for the transcutaneous measurement, the photodiodes and LEDs in the device. (b) A schematic overview of the excitation and emission light between a transcutaneous device and fluorescent agents in capillary vessel after injection. (c-g) The fixation procedures of a transcutaneous device on the skin and measurements in a […]
(§4) Healthy Sprague Dawley rats (Body weight: 250-300 g, 8-10 weeks) were anesthetized for a short period with Isoflurane (Forene®, AbbVie, Illinois, USA; Dosage: 5 %; Flow(O2): 5 L/min) in order to fix the transcutaneous device on the back of rats. The back of the animals was depilated with an electric shaver (Figure 10c-g). After a baseline measurement for around 5 min, a fluorescent agent in saline (DeltaSelect, GmbH, Rimbach, Germany) was injected as a bolus by tail vein injection. […] The devices were removed and the data were read out after 120 min of transcutaneous measurement. The clearance half-life of fluorescent agents was calculated by software. […]

[3] = as above; format: in vivo, Sprague Dawley rats; conditions: for Transcutaneous elimination (clearance) curve, in words: i.v. injection
Method: as §1, §2, §3, §4

[4] = tested on: Sprague Dawley rat plasma; experiment: Plasma protein binding (PPB) by equilibrium dialysis; format: in vitro ADME; conditions: equilibrium dialysis of PBS against dye-plasma stock, 37°C, 24 hours, UV absorption
Text: (§5) The interaction between fluorescent dyes and plasma proteins is particularly important as it affects the capability of the dyes as GRF agents in the following aspects: bio-distribution and clearance pathways as well as the rate of excretion in vivo.[15] […] ABCACY and AACACY display 54.5% and 60% PPB, respectively. […] Additionally, PPB is not only dependent on the dye hydrophilicity, but is also related to the molecular charge number and distribution. Since albumin is alkalotic, acidic agents will preferentially bind to albumin, then to lipoprotein after albumin becomes saturated. Basic agents will bind to the acidic alpha-1 acid glycoprotein.[17] Thus, anionic and cationic compounds are more inclined to bind to proteins than zwitterionic compounds. Therefore, we will mainly focus on zwitterionic compounds in the following parts.
5. […]
(§6) PPB measurements were performed by equilibrium dialysis of PBS against dye-protein stock solution (or control stock solution) using a two-chamber dialysis set-up. After 24 hours the absorption of each of the dyes or agents in PBS and plasma were determined in three independent measurements by both absorption spectroscopy and fluorescence spectroscopy in a microplate reader. The concentrations of each of the dyes or agents were calculated on the basis of the corresponding molar absorption coefficients. […] PPB in percent [%] was determined by averaging three independent measurements and following the equation of Lambert Beer law: […]
(§7) ABZWCY-HPβCD (1 mg/mL in PBS), SD rat plasma (50% in PBS), ABZWCY-HPβCD (1 mg/mL) mixed with SD rat plasma (50% in PBS) were prepared and filtered through a sterile 0.22 μm filter before analysis. […] The measurements were carried out in quadratic cells and analyzed the scattered light at an angle of 90° at a controlled temperature (25 °C). […] The apparent hydrodynamic radius was calculated according to the Stokes-Einstein […]

[5] = as above; format: in vitro ADME, Sprague Dawley rat; conditions: Sprague Dawley, rat, plasma (Li-Heparin), equilibrium dialysis of PBS against dye-plasma stock, 37°C, UV absorption
Text: as §5
5. […]
as §6, §7

Compound: CNC(=O)c1c(I)c(NC(C)=O)c(I)c(C(=O)O)c1I [iothalamate]
- PPB (plasma protein; 'gold standard' renal function agent): 9.5%

- dose excreted ([1]; Sprague Dawley, rat, urine, iv, 2.5 mg/kg, healthy rats, i.v., mean ± SD, n = 3, read-out: Urinary recovery in 24 h): 99.4 ± 4.8%
- dose excreted at 1 h ([1]; Sprague Dawley, rat, urine, iv, 2.5 mg/kg, individual rats, cumulative, time 1 h after i.v. injection): 46.7%
- dose excreted at 2 h ([1]; Sprague Dawley, rat, urine, iv, 2.5 mg/kg, individual rats, cumulative, time 2 h after i.v. injection): 65%
- dose excreted at 6 h ([1]; Sprague Dawley, rat, urine, iv, 2.5 mg/kg, individual rats, cumulative, time 6 h after i.v. injection): 87.2%
- dose excreted at 9 h ([1]; Sprague Dawley, rat, urine, iv, 2.5 mg/kg, individual rats, cumulative, time 9 h after i.v. injection): 96.9%
- dose excreted at 24 h ([1]; Sprague Dawley, rat, urine, iv, 2.5 mg/kg, individual rats, cumulative, time 24 h after i.v. injection): 98.3%
- Urinary recovery at 1 h ([1]; individual rats, cumulative, time 1 h after i.v. injection): 53.33% and 49.29%
- Urinary recovery at 2 h ([1]; individual rats, cumulative, time 2 h after i.v. injection): 73.06%
- Urinary recovery at 6 h ([1]; individual rats, cumulative, time 6 h after i.v. injection): 81.95% and 89.05%
- Urinary recovery at 9 h ([1]; individual rats, cumulative, time 9 h after i.v. injection): 86.39%
- Urinary recovery at 24 h ([1]; individual rats, cumulative, time 24 h after i.v. injection): 93.3% and 106.6%
- half-life [2]: 48.7 ± 5.4 min
- half-life ([3]; Sprague Dawley, rat, skin (transcutaneous fluorescence signal), iv, 2.5 mg/kg, healthy rats 8-10 weeks, i.v. bolus, transcutaneous measurement, read-out: T 1/2 without probenecid (clearance half-life)): 52.6 ± 8.8 min
- PPB [4]: 19%
- fraction unbound at 24 h, 0.2 mg/mL [5]: ~0.8
Compound: CC1(C)C(/C=C/C2=C(Nc3ccc(CCC(=O)O)cc3)C(=C/C=C3/N(CCC[N+](C)(C)C)c4ccc(S(=O)(=O)O)cc4C3(C)C)/CCC2)=[N+](CCC[N+](C)(C)C)c2ccc(S(=O)(=O)O)cc21 [ABZWCY]
- Tubular reabsorption or secretion in the kidneys (from probenecid effect) ([3]; healthy rats, half-life with versus without probenecid): tubular reabsorption or secretion is a minor factor
- Transcutaneous elimination (clearance) curve, in words ([3]; healthy rats): did not return to background levels at 2 h post-injection

Compound: CC1(C)C(/C=C/C=C/C=C/C=C2\N(CCCCS(=O)(=O)O)c3ccc4ccccc4c3C2(C)C)=[N+](CCCCS(=O)(=O)[O-])c2ccc3ccccc3c21 [ICG, indocyanine green]
- PPB (plasma protein): 99%

- Transcutaneous elimination (clearance) curve, in words ([3]; healthy rats): no decay even at 90 min post-injection
Compound: CC1(C)C(/C=C/C2=C(Oc3ccc(S(=O)(=O)O)cc3)C(=C/C=C3/N(CCCCS(=O)(=O)O)c4ccc(S(=O)(=O)[O-])cc4C3(C)C)/CCC2)=[N+](CCCCCC(=O)O)c2ccc(S(=O)(=O)O)cc21 [IRDye800CW, reference compound]
- PPB (plasma protein; previous study of the authors): 41%

- fraction unbound at 24 h, 0.2 mg/mL [5]: 0.843
Compound: CC1(C)C(/C=C/C2=C(Nc3ccc(CCN=[N+]=[N-])cc3)C(=C/C=C3/N(CCC[N+](C)(C)C)c4ccc(S(=O)(=O)O)cc4C3(C)C)/CCC2)=[N+](CCC[N+](C)(C)C)c2ccc(S(=O)(=O)O)cc21 [AAZWCY]
